# Read-outs that look alike come from different tables or passages of the source.
# Tests used:
# AaDOP2 = AaDOP2 (Aedes aegypti, UniProt H6D5H2); test: AaDOP2 agonist screen against the LOPAC1280 library; type: cell-based
# Ae. aegypti L3 larvae [1] = test: whole plant or invertebrate; conditions: Aedes aegypti
# Ae. aegypti L3 larvae [2] = conditions: 400 μM, three independent experiments
# Isdop2 = Isdop2 (Ixodes scapularis, UniProt A0ACM8DGL0); test: cell-based; conditions: read-out: % Inhibition (of response to dopamine), Isdop2 screen
# Isdop2, sequence (A0ACM8DGL0 entry or part of it): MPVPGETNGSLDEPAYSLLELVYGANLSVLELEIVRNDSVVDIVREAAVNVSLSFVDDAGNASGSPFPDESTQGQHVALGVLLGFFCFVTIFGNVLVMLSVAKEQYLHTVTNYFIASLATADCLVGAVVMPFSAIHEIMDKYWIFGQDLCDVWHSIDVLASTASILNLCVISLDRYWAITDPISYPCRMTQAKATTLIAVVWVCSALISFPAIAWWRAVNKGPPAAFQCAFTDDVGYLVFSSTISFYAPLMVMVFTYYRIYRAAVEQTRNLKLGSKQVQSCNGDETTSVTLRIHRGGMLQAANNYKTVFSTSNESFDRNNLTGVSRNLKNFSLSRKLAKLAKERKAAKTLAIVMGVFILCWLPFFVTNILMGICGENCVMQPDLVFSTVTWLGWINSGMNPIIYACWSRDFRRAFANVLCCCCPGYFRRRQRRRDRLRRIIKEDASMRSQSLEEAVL
# [3] = tested on: adult Reticulitermes flavipes; test: Termite immersion assay; type: in vivo; conditions: 100 mM compound (Fipronil 500 μM), immersion, adult termite
# From the text: A series of whole organism bioassays was developed to further evaluate the toxicity of chemistries to a range of agricultural, veterinary and public health pests and non-target insects (Tables 12 and 13). These assays are designed to rapidly explore the biological activity spectrum of chemistries as well as to facilitate initial investigations of the mode of action of insecticidal compounds. Briefly, assays were developed for the German cockroach (Blatella germanica, urban pest), termite (Reticulitermes flavipes; urban pest), lone star tick (Amblyomma americana; veterinary and public health pest), soybean aphid (Aphis glycines, agricultural pest) and honeybee (Apis mellifera; beneficial, non-target insect). The assays were designed to test the toxicity and speed of kill of multiple chemistries on contact. Each of these assays was performed as a single point dose experiment in triplicate using either topical application of compound to the ventral thorax (1 μl of a […] compound solution in 1:1 v:v DMSO:EtOH vehicle; 50-80 μg effective dose depending on compound) as is the case for our cockroach and honeybee assays, or 10 second immersion in a solution of the compound diluted in water or DMSO:[…] The assays were conducted in 24-well plate format with mortality assessment following incubation at 22° C. as described above. Commercial insecticides were incorporated in these assays to provide a positive control and permit initial comparative analyses. Lead chemistries identified in our in vivo screen have been evaluated in the cockroach and termite assays.
# [4] = 10 μM compound, percent of response to 1 μM dihydrexidine
# [5] = 48 h, read-out: Toxicity to Aedes aegypti larvae (mortality) 48 hours, 400 μM, L3 larvae, three independent experiments
# [6] = 72 h, read-out: Toxicity to Aedes aegypti larvae (mortality) 72 hours, 400 μM, L3 larvae, three independent experiments
# AaDOP2, sequence (H6D5H2 entry or part of it): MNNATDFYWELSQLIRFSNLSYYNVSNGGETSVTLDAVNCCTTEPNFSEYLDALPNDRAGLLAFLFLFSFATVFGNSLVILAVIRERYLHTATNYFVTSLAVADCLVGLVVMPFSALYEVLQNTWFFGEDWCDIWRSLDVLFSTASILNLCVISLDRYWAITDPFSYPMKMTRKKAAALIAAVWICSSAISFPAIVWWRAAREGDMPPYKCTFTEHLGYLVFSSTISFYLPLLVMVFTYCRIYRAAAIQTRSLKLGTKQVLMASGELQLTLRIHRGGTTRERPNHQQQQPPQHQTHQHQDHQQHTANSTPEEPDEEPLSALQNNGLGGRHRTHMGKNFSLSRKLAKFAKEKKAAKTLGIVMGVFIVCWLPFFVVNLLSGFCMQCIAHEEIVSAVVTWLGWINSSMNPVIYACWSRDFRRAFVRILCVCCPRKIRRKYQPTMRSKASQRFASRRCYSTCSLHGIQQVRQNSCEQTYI
smiles,measurement,setting,value
C=CCN1CCc2c(cc(O)c(O)c2Cl)C(c2ccccc2)C1 (racemic) [(±)-Chloro-APB],% of DHX,AaDOP2; [4],105%
CNC[C@H](O)c1ccc(O)c(O)c1 (racemic) [(±)-Epinephrine],% of DHX,AaDOP2,81%
Nn1nnc2ccccc21 [1-Aminobenzotriazole],% of DHX,AaDOP2; [4],75%
"NC1CCc2cc(O)c(O)cc2C1 (stereo not shown) [6,7-ADTN]",% of DHX,AaDOP2; [4],131%
CC1=C[C@@H]2c3cccc4[nH]cc(c34)C[C@H]2N(C)C1 [Agroclavine],% of DHX,AaDOP2; [4],93%
"CN1C2CCC1CC(OC(c1ccccc1)c1ccccc1)C2 (stereo not drawn) [Benztropine, (3-endo)-3-(diphenylmethoxy)-8-methyl-8-azabicyclo[3.2.1]octane]",mortality at 400 µM,"Ae. aegypti L3 larvae [1]; 0.5 h, read-out: percent mortality 0.5 hr, 400 uM, L3 larvae, value for this scoring time",0%
same,mortality at 400 µM,"Ae. aegypti L3 larvae [1]; 1 h, read-out: percent mortality 1 hr, 400 uM, L3 larvae, per scoring time",0%
same,mortality at 400 µM,"Ae. aegypti L3 larvae [1]; 2 h, read-out: percent mortality 2 hr, 400 uM, L3 larvae, per scoring time",20%
same,mortality at 400 µM,"Ae. aegypti L3 larvae [1]; 3 h, read-out: percent mortality 3 hr, 400 uM, L3 larvae, per scoring time",0%
same,mortality at 400 µM,"Ae. aegypti L3 larvae [1]; 4 h, read-out: percent mortality 4 hr, 400 uM, L3 larvae, per scoring time",0%
same,mortality at 400 µM,"Ae. aegypti L3 larvae [1]; 24 h, read-out: percent mortality 24 hr, 400 uM, L3 larvae, per scoring time",40%
same,mortality at 400 µM,Ae. aegypti L3 larvae [1]; [5],100%
same,mortality at 400 µM,"Ae. aegypti L3 larvae [1]; 48 h, read-out: percent mortality 48 hr, 400 uM, L3 larvae, per scoring time",0%
same,mortality at 400 µM,"Ae. aegypti L3 larvae [1]; 72 h, read-out: Cumulative % Mortality (72 hrs), 400 uM, L3 larvae",100%
same,mortality at 400 µM,Ae. aegypti L3 larvae [1]; [6],100%
same,mortality at 400 µM,"Ae. aegypti L3 larvae [1]; 72 h, read-out: percent mortality 72 hr, 400 uM, L3 larvae, per scoring time",0%
same,Toxicity to Aedes aegypti larvae (mortality) 24 hours,Ae. aegypti L3 larvae [2],100%
same,inhibition at 10 µM,Isdop2,84%
C[C@H]1C[C@H]2[C@@H]3CCC4=CC(=O)C=C[C@]4(C)[C@@]3(F)[C@@H](O)C[C@]2(C)[C@@]1(O)C(=O)CO [Betamethasone],% of DHX,AaDOP2; [4],101%
Nc1ncnc2c1ncn2[C@@H]1O[C@H](C(=O)NC2CC2)[C@@H](O)[C@H]1O [CPCA],% of DHX,AaDOP2; [4],34%
CN(C)CCCN1c2ccccc2CCc2ccc(Cl)cc21 [Clomipramine],mortality at 400 µM,"Ae. aegypti L3 larvae [1]; 24 h, read-out: Toxicity to Aedes aegypti larvae (mortality) 24 hours, 400 μM, L3 larvae, three independent experiments",70 to 100%
same,mortality at 400 µM,Ae. aegypti L3 larvae [1]; [5],93%
same,mortality at 400 µM,Ae. aegypti L3 larvae [1]; [6],93%
same,Toxicity to Aedes aegypti larvae (mortality) 24 hours,Ae. aegypti L3 larvae [2],70%
same,inhibition at 10 µM,Isdop2,84%
CCCN(CCC)CCc1ccc(O)c(O)c1 [Dipropyldopamine],% of DHX,AaDOP2; [4],38%
CCN(c1nc(N)c(C(=O)NC(=N)N)nc1Cl)C(C)C [EIPA],% of DHX,AaDOP2; [4],73%
Oc1ccc(C2CNCCc3c2cc(O)c(O)c3Cl)cc1 (stereo not shown) [Fenoldopam],% of DHX,AaDOP2; [4],31%
N#Cc1nn(-c2c(Cl)cc(C(F)(F)F)cc2Cl)c(N)c1[S+]([O-])C(F)(F)F (stereo not shown) [Fipronil],% Mortality 24 hrs,[3],90%
same,% Mortality 48 hrs,[3],100%
same,% Mortality 72 hrs,[3],100%
same,% Mortality 120 hrs,[3],100%
same,% Mortality 240 hrs,[3],100%
C=C[C@@]1(C)CC(=O)[C@]2(O)[C@@]3(C)[C@@H](O)CCC(C)(C)[C@@H]3[C@H](O)[C@H](OC(C)=O)[C@@]2(C)O1 [Forskolin],% of DHX,AaDOP2; [4],34%
